Results: patent US6440405B1, “Quaternary ammonium functionalized dendrimers and methods of use therefor” (priority 1999, dated 2002)

What was measured:
Staphylococcus aureus = conditions: reported results; cited from earlier work
[1] = test system: recombinant E. coli strain TV 1048; assay: Bioluminescence method (light-off response) with recombinant E. coli strain TV 1048; type: cell-based; conditions: at 5 min; by interpolation of bioluminescence against concentration curves

CCCCCCCCCCCC[N+](C)(C)C.[Cl-] [DTAC, n-dodecyltrimethyl ammonium chloride]
effectiveness against S. aureus compared with D4ClNC12 (in words) (Staphylococcus aureus): Somewhat less effective
EC50 (concentration causing a 50% reduction of the bioluminescence) [1]: about 2000 ppm
